Source: PubChem BioAssay (NCI)
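Five compound concentrations were applied to cells in 96-well plates for 48 hours; endpoints were derived by simple linear interpolation of the resulting dose-response curve. GI50 marks 50% less growth. TGI denotes the concentration required for complete inhibition of growth.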

Columns and labels:
Test in all cases: inhibition of tumour cell growth, NCI panel, 48 h
[1] = test system: SW-620 colon
[2] = test system: HOP-62 NSCLC
[3] = test system: TK-10 renal
[4] = test system: M14 melanoma
[5] = test system: HS 578T breast
[6] = test system: HCT-116 colon
[7] = test system: MOLT-4 leukemia
[8] = test system: CCRF-CEM leukemia
[9] = test system: K-562 leukemia
[10] = test system: HCT-15 colon

Row | Structure (SMILES) | GI50 [1] [µM] | TGI [1] | GI50 [2] | TGI [2] | GI50 [3] | TGI [3] | GI50 [4] | TGI [4] | GI50 [5] | TGI [5] | GI50 [6] [µM] | TGI [6] | GI50 [7] [µM] | TGI [7] | GI50 [8] [µM] | TGI [8] | GI50 [9] | TGI [9] | GI50 [10] | TGI [10]
1 | Cc1ccccc1NC(=S)Nc1ccccn1 | > 100 | > 100 µM | > 100 µM | > 100 µM | > 100 µM | > 100 µM | > 100 µM | > 100 µM | > 100 µM | > 100 µM | > 100 | > 100 µM | > 100 | > 100 µM | > 100 | > 100 µM | > 100 µM | > 100 µM | > 100 µM | > 100 µM
2 | C=C1C(=O)O[C@H]2[C@H]1CC/C(CNC(=O)/C=C/c1ccc(Br)cc1)=C\CC[C@@]1(C)O[C@@H]21 | 0.444 | 1.77 µM | 2.2 µM | 6.87 µM | 1.24 µM | 2.58 µM | 1.11 µM | 2.69 µM | 1.44 µM | 4.43 µM | 0.667 | 1.95 µM | 0.678 | 4.25 µM | 0.354 | 4.59 µM | 0.438 µM | > 33.4 µM | 0.519 µM | 1.88 µM
3 | Cn1cc(-c2nonc2-c2c[nH]c3ccccc23)c2ccccc21 | 0.335 | 15.6 µM | 0.47 µM | 17 µM | 1.55 µM | 24.4 µM | 0.317 µM | 12 µM | 0.298 µM | 2.32 µM | 0.404 | 10.5 µM | 0.499 | 14.8 µM | 0.396 | 27.9 µM | 0.223 µM | > 36.9 µM | 0.354 µM | 11.3 µM
4 | COc1cccc2c1C(=O)c1c(O)c3c(c(O)c1C2=O)CC(O)(C(C)=O)CC3OC1CC(N)C(O)C(C)O1 (stereo not given) | – | 0.47 µg/mL | 0.0221 µg/mL | 2.08 µg/mL | 0.273 µg/mL | 18.6 µg/mL | 0.0403 µg/mL | 0.705 µg/mL | 0.0481 µg/mL | 0.421 µg/mL | – | 2.06 µg/mL | – | 0.019 µg/mL | – | 0.324 µg/mL | 0.0156 µg/mL | 0.922 µg/mL | 0.824 µg/mL | 7.86 µg/mL
5 | C=C(Cn1c(=O)c2ccccc2c2ccccc21)c1ccc(C(=O)Nc2ccccc2N)cc1 | 58.7 | > 100 µM | 40.9 µM | > 100 µM | 33.8 µM | > 100 µM | > 19.8 µM | > 100 µM | 58.2 µM | > 100 µM | 15.2 | > 100 µM | 0.0415 | 0.196 µM | 0.466 | 4.13 µM | 0.781 µM | – | 33.5 µM | > 100 µM
6 | COc1ccc(C#Cc2ccccc2C#CCCCCO)cc1 | 17.8 | 34.8 µM | 28.6 µM | 45.4 µM | 16.7 µM | 35.2 µM | 19.4 µM | 36.2 µM | 28.3 µM | 65.1 µM | 22.5 | 43.7 µM | 18.3 | 39.2 µM | 23.5 | 53.8 µM | 21.9 µM | 43.9 µM | 16.3 µM | 29.9 µM
7 | CN(C)CCCOc1ccccc1NC1=C(Cl)C(=O)C(Nc2ccccc2OCCCN(C)C)=C(Cl)C1=O | 0.207 | 0.415 µM | 1.66 µM | 3.31 µM | 1.93 µM | 3.36 µM | 1.6 µM | 3.16 µM | 1.83 µM | 5.46 µM | 0.183 | 0.356 µM | 0.223 | 0.578 µM | 0.262 | 1.3 µM | 0.274 µM | 0.793 µM | 0.749 µM | 2.18 µM
8 | COc1cccc(C2CC(c3cc(OC)c(OC)c(OC)c3)=NN2)c1 (stereo not given) | 3.05 | 11.5 µM | 8.99 µM | 71.4 µM | 23.7 µM | 85.2 µM | 48.8 µM | > 100 µM | 15.5 µM | 49.4 µM | 5.31 | 19 µM | 6.17 | 41.4 µM | 2.91 | 21.7 µM | 4.19 µM | > 100 µM | 10.1 µM | 23.8 µM
9 | CC/C(Cc1ccccc1)=C(\c1ccc(OCCN2CCCCCC2)cc1)c1ccc(OC(=O)NCc2ccccc2)cc1 | 1.16 | 2.49 µM | 7.02 µM | 14.5 µM | 8.2 µM | 16 µM | 1.06 µM | 2.55 µM | 2.66 µM | 11.8 µM | 0.895 | 1.63 µM | 1.15 | 3.78 µM | 1.56 | 5.72 µM | 0.898 µM | 2.33 µM | 1.07 µM | 2.94 µM
10 | O=[N+]([O-])c1ccc(Nc2ccccc2-c2ccccc2)c2nonc12 | 18 | 44.8 µM | 17.4 µM | 42.7 µM | 22.8 µM | 59.6 µM | 13.3 µM | 30.6 µM | 15.2 µM | 62.8 µM | 13.9 | 31.6 µM | 20 | 88.2 µM | 15.6 | > 72.2 µM | 18 µM | > 100 µM | 13.2 µM | 28.2 µM
11 | COC1=CC(c2ccc[nH]2)=N/C1=C\c1[nH]c(C)c(C(=O)OCc2ccccc2)c1C | 0.0346 | 1.21 µM | 0.314 µM | 2.77 µM | 0.0854 µM | 1.91 µM | 0.0448 µM | 0.817 µM | 0.0804 µM | 0.662 µM | 0.0321 | 1.16 µM | 0.0513 | 4.61 µM | 0.0404 | > 28.3 µM | 0.0855 µM | 1.46 µM | 0.0333 µM | 1.09 µM
12 | OCCOc1ccc(-c2cc(-c3ccccn3)nc(-c3ccccn3)c2)cc1 | – | > 100 µM | – | > 18.9 µM | – | > 100 µM | – | 3.91 µM | – | > 100 µM | – | > 43.7 µM | – | 22.6 µM | – | 40.4 µM | – | 11.4 µM | – | > 40.6 µM
13 | Nc1ncnc2c1ncn2C1OC(COP(=O)(O)CP(=O)(O)O)C(O)C1O (stereo not given) | – | > 100 µM | – | > 100 µM | – | > 100 µM | – | > 100 µM | – | > 100 µM | – | > 100 µM | – | > 100 µM | – | > 100 µM | – | > 100 µM | – | > 100 µM
